Assays:
MDA-MB-435 = format: cell-based; settings: Homo sapiens, one dose 10^-5 M, 48 h, read-out: % growth
SF-539 = format: cell-based; settings: Homo sapiens, one dose 10^-5 M, 48 h
MDA-MB-231/ATCC = format: cell-based; settings: Homo sapiens, one dose 10^-5 M, 48 h
A498 = format: cell-based; settings: Homo sapiens, one dose 10^-5 M, 48 h
HL-60(TB) = format: cell-based; settings: Homo sapiens, one dose 10^-5 M, 48 h
SK-MEL-2 = format: cell-based; settings: Homo sapiens, one dose 10^-5 M, 48 h
RXF 393 = format: cell-based; settings: Homo sapiens, RXF 393, 48 h, one dose 10^-5 M, 48 h, read-out: % growth
SF-268 = format: cell-based; settings: Homo sapiens, one dose 10^-5 M, 48 h, read-out: % growth
OVCAR-4 = format: cell-based; settings: Homo sapiens, one dose 10^-5 M, 48 h
IGROV1 = format: cell-based; settings: Homo sapiens, IGROV-1, one dose 10^-5 M, 48 h, read-out: % growth
SK-MEL-28 = format: cell-based; settings: Homo sapiens, one dose 10^-5 M, 48 h
SF-295 = format: cell-based; settings: Homo sapiens, one dose 10^-5 M, 48 h
K-562 = format: cell-based; settings: Homo sapiens, K562, one dose 10^-5 M, 48 h
SR = format: cell-based; settings: Homo sapiens, one dose 10^-5 M, 48 h
HCC-2998 = format: cell-based; settings: Homo sapiens, one dose 10^-5 M, 48 h
LOX IMVI = format: cell-based; settings: Homo sapiens, one dose 10^-5 M, 48 h, read-out: % growth
CCRF-CEM = format: cell-based; settings: Homo sapiens, one dose 10^-5 M, 48 h
HOP-62 = format: cell-based; settings: Homo sapiens, one dose 10^-5 M, 48 h
SK-MEL-5 = format: cell-based; settings: Homo sapiens, one dose 10^-5 M, 48 h, read-out: % growth
HCT-15 = format: cell-based; settings: Homo sapiens, one dose 10^-5 M, 48 h, read-out: % growth
HCT-116 = format: cell-based; settings: Homo sapiens, one dose 10^-5 M, 48 h, read-out: % growth
NCI-H460 = format: cell-based; settings: Homo sapiens, one dose 10^-5 M, 48 h, read-out: % growth
MOLT-4 = format: cell-based; settings: Homo sapiens, one dose 10^-5 M, 48 h, read-out: % growth
UACC-62 = format: cell-based; settings: Homo sapiens, one dose 10^-5 M, 48 h
CAKI-1 = format: cell-based; settings: Homo sapiens, CAKI-1, 48 h, one dose 10^-5 M, 48 h
KM12 = format: cell-based; settings: Homo sapiens, one dose 10^-5 M, 48 h
SNB-19 = format: cell-based; settings: Homo sapiens, one dose 10^-5 M, 48 h, read-out: % growth
DU-145 = format: cell-based; settings: Homo sapiens, one dose 10^-5 M, 48 h
SNB-75 = format: cell-based; settings: Homo sapiens, one dose 10^-5 M, 48 h
[1] = test system: full NCI 60 cell lines panel
OVCAR-5 = format: cell-based; settings: Homo sapiens, one dose 10^-5 M, 48 h
ACHN = format: cell-based; settings: Homo sapiens, one dose 10^-5 M, 48 h
HS 578T = format: cell-based; settings: Homo sapiens; one dose 10^-5 M, 48 h; HS 578T; read-out: % growth
RPMI-8226 = format: cell-based; settings: Homo sapiens, one dose 10^-5 M, 48 h
UACC-257 = format: cell-based; settings: Homo sapiens, one dose 10^-5 M, 48 h
786-0 = format: cell-based; settings: Homo sapiens, one dose 10^-5 M, 48 h
MALME-3M = format: cell-based; settings: Homo sapiens, one dose 10^-5 M, 48 h
U251 = format: cell-based; settings: Homo sapiens, U-251, one dose 10^-5 M, 48 h
TK-10 = format: cell-based; settings: Homo sapiens, one dose 10^-5 M, 48 h
SK-OV-3 = format: cell-based; settings: Homo sapiens, one dose 10^-5 M, 48 h
OVCAR-8 = format: cell-based; settings: Homo sapiens, one dose 10^-5 M, 48 h
SW-620 = format: cell-based; settings: Homo sapiens, one dose 10^-5 M, 48 h
UO-31 = format: cell-based; settings: Homo sapiens, UO-31, 48 h, one dose 10^-5 M, 48 h
A549/ATCC = format: cell-based; settings: Homo sapiens, one dose 10^-5 M, 48 h
HT29 = format: cell-based; settings: Homo sapiens, HT-29, one dose 10^-5 M, 48 h
PC-3 = format: cell-based; settings: Homo sapiens, one dose 10^-5 M, 48 h
M14 = format: cell-based; settings: Homo sapiens, one dose 10^-5 M, 48 h
NCI-H522 = format: cell-based; settings: Homo sapiens, one dose 10^-5 M, 48 h
T-47D = format: cell-based; settings: Homo sapiens, T47D, one dose 10^-5 M, 48 h, read-out: % growth
NCI-H23 = format: cell-based; settings: Homo sapiens, one dose 10^-5 M, 48 h, read-out: % growth
MCF7 = format: cell-based; settings: Homo sapiens, one dose 10^-5 M, 48 h, read-out: % growth
HOP-92 = format: cell-based; settings: Homo sapiens, one dose 10^-5 M, 48 h
SN12C = format: cell-based, human; settings: Homo sapiens, one dose 10^-5 M, 48 h
EKVX = format: cell-based; settings: Homo sapiens, one dose 10^-5 M, 48 h
NCI-H226 = format: cell-based; settings: Homo sapiens, one dose 10^-5 M, 48 h
MDA-MB-468 = format: cell-based; settings: Homo sapiens, one dose 10^-5 M, 48 h
OVCAR-3 = format: cell-based; settings: Homo sapiens, one dose 10^-5 M, 48 h

COc1ccc(C=NNC(=N)c2c(N)nc(S)nc2-c2ccc(Cl)cc2)cc1 [Compound 4j, 4-amino-6–(4-chlorophenyl)-2-mercapto-N'-[(4-methoxyphenyl)methylene] pyrimidine-5-carboximidohydrazide]
activity at 10 µM (MDA-MB-435): 104%
% growth at 10 µM (SF-539): 101%
% growth at 10 µM (MDA-MB-231/ATCC): 91.3%
% growth at 10 µM (A498): 125%
% growth at 10 µM (HL-60(TB)): 111%
% growth at 10 µM (SK-MEL-2): 110%
activity at 10 µM (RXF 393): 124%
activity at 10 µM (SF-268): 113%
% growth at 10 µM (OVCAR-4): 99.6%
activity at 10 µM (IGROV1): 91.5%
% cell growth at 10 µM (SK-MEL-28): 111%
% cell growth at 10 µM (SF-295): 97.5%
% growth at 10 µM (K-562): 95%
percent cell growth at 10 µM (SR): 97.3%
% growth at 10 µM (HCC-2998): 113%
activity at 10 µM (LOX IMVI): 104%
% cell growth at 10 µM (CCRF-CEM): 89.7%
% growth at 10 µM (HOP-62): 90.3%
activity at 10 µM (SK-MEL-5): 102%
activity at 10 µM (HCT-15): 95.6%
activity at 10 µM (HCT-116): 107%
activity at 10 µM (NCI-H460): 119%
activity at 10 µM (MOLT-4): 101%
% growth at 10 µM (UACC-62): 92.9%
% growth at 10 µM (CAKI-1): 91.9%
% growth at 10 µM (KM12): 100%
activity at 10 µM (SNB-19): 90.5%
% growth at 10 µM (DU-145): 118%
% growth at 10 µM (SNB-75): 103%
activity at 10 µM ([1]; Homo sapiens, 60 cell, 48 h, read-out: Mean % growth): 103%
activity on all 60 cancer cell lines tested (in words) ([1]; one dose): weak activity
percent cell growth at 10 µM (OVCAR-5): 102%
% growth at 10 µM (ACHN): 97.4%
activity at 10 µM (HS 578T): 107%
% growth at 10 µM (RPMI-8226): 91.2%
percent cell growth at 10 µM (UACC-257): 110%
% growth at 10 µM (786-0): 104%
% growth at 10 µM (MALME-3M): 105%
% growth at 10 µM (U251): 107%
% cell growth at 10 µM (TK-10): 143%
% growth at 10 µM (SK-OV-3): 93.7%
% growth of cells at 10 µM (OVCAR-8): 101%
% growth at 10 µM (SW-620): 112%
% cell growth at 10 µM (UO-31): 77.5%
% growth at 10 µM (A549/ATCC): 107%
% growth at 10 µM (HT29): 105%
percent cell growth at 10 µM (PC-3): 82.6%
% growth at 10 µM (M14): 109%
% growth at 10 µM (NCI-H522): 101%
activity at 10 µM (T-47D): 86.8%
activity at 10 µM (NCI-H23): 103%
activity at 10 µM (MCF7): 86.6%
% growth at 10 µM (HOP-92): 107%
% growth at 10 µM (SN12C): 93.6%
% cell growth at 10 µM (EKVX): 94.8%
% growth at 10 µM (NCI-H226): 125%
percent cell growth at 10 µM (MDA-MB-468): 114%
% growth at 10 µM (OVCAR-3): 110%

Reference: PMC10866072, “Design, synthesis, molecular modelling and biological evaluation of novel 6-amino-5-cyano-2-thiopyrimidine derivatives as potent anticancer agents against leukemia and apoptotic inducers” (Journal of Enzyme Inhibition and Medicinal Chemistry, 2024)
